Results: ChEMBL document CHEMBL3046140, “Design, synthesis, antimicrobial, anticancer evaluation, and QSAR studies of 4-(substituted benzylidene-amino)-1,5-dimethyl-2-phenyl-1,2-dihydropyrazol-3-ones” (Med Chem Res, 2012)

Legend:
Aspergillus niger [1] = assay: Antifungal activity against Aspergillus niger MTCC 8189 after 7 days by tube dilution method; assay type: functional
Staphylococcus aureus [2] = assay: Antibacterial activity against Staphylococcus aureus MTCC 2901 after 24 hr by tube dilution method; assay type: functional
Candida albicans [3] = assay: Fungicidal activity against Candida albicans MTCC 227; assay type: functional
Escherichia coli [4] = assay: Antibacterial activity against Escherichia coli MTCC 1652 after 24 hr by tube dilution method; assay type: functional
Staphylococcus aureus [5] = assay: Bactericidal activity against Staphylococcus aureus MTCC 2901; assay type: functional
Bacillus subtilis [6] = assay: Bactericidal activity against Bacillus subtilis MTCC 2063; assay type: functional
Escherichia coli [7] = assay: Bactericidal activity against Escherichia coli MTCC 1652; assay type: functional
Aspergillus niger [8] = assay: Fungicidal activity against Aspergillus niger MTCC 8189; assay type: functional
Candida albicans [9] = assay: Antifungal activity against Candida albicans MTCC 227 after 48 hr by tube dilution method; assay type: functional
Bacillus subtilis [10] = assay: Antibacterial activity against Bacillus subtilis MTCC 2063 after 24 hr by tube dilution method; assay type: functional
HCT-116 = assay: Cytotoxicity against Homo sapiens (human) HCT116 cells after 72 hr by MTT assay; assay type: functional, cell-based; conditions: HCT-116, 72 h, read-out: pIC50 (converted)
HT-29 = assay: Cytotoxicity against Homo sapiens (human) HT-29 cells after 72 hr by MTT assay; assay type: functional, cell-based; conditions: HT-29, 72 h, read-out: pIC50 (converted)

| SMILES | -logMIC (Aspergillus niger [1]) | -logMIC (Staphylococcus aureus [2]) | MFC (Candida albicans [3]) [uM/ml] | -logMIC (Escherichia coli [4]) | MBC (Staphylococcus aureus [5]) [uM/ml] | MBC (Bacillus subtilis [6]) [uM/ml] | MBC (Escherichia coli [7]) [uM/ml] | MFC (Aspergillus niger [8]) [uM/ml] | -logMIC (Candida albicans [9]) | -logMIC (Bacillus subtilis [10]) | IC50 (HCT-116) [µM] | IC50 (HT-29) [µM] |
| --- | --- | --- | --- | --- | --- | --- | --- | --- | --- | --- | --- | --- |
| Cc1c(/N=C/c2ccccc2)c(=O)n(-c2ccccc2)n1C | 1.37 | 1.07 | >0.17 | 1.37 | >0.17 | >0.17 | >0.17 | >0.17 | 1.37 | 1.07 | – | – |
| Cc1c(/N=C/c2ccc(Cl)cc2)c(=O)n(-c2ccccc2)n1C | 1.42 | 1.12 | >0.15 | 1.12 | >0.15 | >0.15 | >0.15 | 0.15 | 1.42 | 1.12 | – | – |
| Cc1c(/N=C/c2ccc(O)cc2)c(=O)n(-c2ccccc2)n1C | 1.69 | 1.39 | >0.16 | 1.39 | >0.16 | >0.16 | >0.16 | >0.16 | 1.39 | 1.39 | – | – |
| COc1ccc(/C=N/c2c(C)n(C)n(-c3ccccc3)c2=O)cc1 | 1.41 | 1.11 | >0.16 | 1.41 | >0.16 | >0.16 | >0.16 | >0.16 | 1.41 | 1.11 | – | – |
| COc1ccc(/C=N/c2c(C)n(C)n(-c3ccccc3)c2=O)cc1OC | 1.45 | 1.15 | >0.14 | 1.45 | >0.14 | >0.14 | >0.14 | >0.14 | 1.45 | 1.15 | – | – |
| COc1cc(/C=N/c2c(C)n(C)n(-c3ccccc3)c2=O)cc(OC)c1OC | 1.48 | 1.48 | >0.13 | 1.48 | >0.13 | >0.13 | >0.13 | 0.13 | 1.48 | 1.48 | – | – |
| Cc1c(/N=C/c2cccc(Cl)c2)c(=O)n(-c2ccccc2)n1C | 1.42 | 1.72 | >0.15 | 2.02 | >0.15 | >0.15 | >0.15 | >0.15 | 2.02 | 1.72 | – | – |
| Cc1c(/N=C/c2ccc(Cl)cc2Cl)c(=O)n(-c2ccccc2)n1C | 1.46 | 1.16 | >0.14 | 1.46 | >0.14 | >0.14 | >0.14 | >0.14 | 1.46 | 1.16 | – | – |
| COc1cccc(/C=N/c2c(C)n(C)n(-c3ccccc3)c2=O)c1O | 1.13 | 1.13 | >0.15 | 1.43 | >0.15 | >0.15 | >0.15 | >0.15 | 1.43 | 1.13 | 89.1 | – |
| Cc1c(/N=C/c2cccc([N+](=O)[O-])c2)c(=O)n(-c2ccccc2)n1C | 1.43 | 1.13 | >0.15 | 1.43 | >0.15 | >0.15 | >0.15 | >0.15 | 1.43 | 1.43 | – | – |
| COc1ccccc1/C=N/c1c(C)n(C)n(-c2ccccc2)c1=O | 1.41 | 1.41 | >0.16 | 1.41 | >0.16 | >0.16 | >0.16 | >0.16 | 1.41 | 1.41 | – | 70.8 |
| COc1cccc(/C=N/c2c(C)n(C)n(-c3ccccc3)c2=O)c1 | 1.41 | 1.11 | >0.16 | 1.41 | >0.16 | >0.16 | >0.16 | 0.16 | 1.41 | 1.11 | – | – |
| Cc1c(/N=C/c2ccccc2Cl)c(=O)n(-c2ccccc2)n1C | 1.42 | 1.12 | >0.15 | 1.42 | >0.15 | >0.15 | >0.15 | >0.15 | 1.42 | 1.42 | – | – |
| Cc1c(/N=C/c2cccc(O)c2)c(=O)n(-c2ccccc2)n1C | 1.39 | 1.09 | >0.16 | 1.39 | >0.16 | >0.16 | >0.16 | >0.16 | 1.39 | 1.39 | – | – |
| CCOc1cc(/C=N/c2c(C)n(C)n(-c3ccccc3)c2=O)ccc1O | 1.45 | 1.15 | >0.14 | 1.45 | >0.14 | >0.14 | >0.14 | >0.14 | 1.45 | 1.15 | – | – |
| OC(Cn1cncn1)(Cn1cncn1)c1ccc(F)cc1F [FLUCONAZOLE] | 2.64 | – | 0.04 | – | – | – | – | 0.04 | 2.64 | – | – | – |
| O=c1[nH]cc(F)c(=O)[nH]1 [FLUOROURACIL] | – | – | – | – | – | – | – | – | – | – | 45.7 | 85.1 |
| CCn1cc(C(=O)O)c(=O)c2cc(F)c(N3CCNCC3)cc21 [NORFLOXACIN] | – | 2.61 | – | 2.61 | 0.019 | 0.019 | 0.019 | – | – | 2.61 | – | – |
